Measurements reported in ChEMBL document CHEMBL1128159, “Synthesis and evaluation of diacylhydrazines as inhibitors of the interleukin-1 converting enzyme (ICE)” (Bioorg Med Chem Lett, 1995).
Where a SMILES comes first, the peptide text is derived from it.

What was measured:
[1] = target: T1, Caspase-1 (Homo sapiens) (UniProt P29466); test: Compound was tested for inhibition of IL-1 beta converting enzyme by measuring second order rate of inactivation
T1 sequence (whole entry): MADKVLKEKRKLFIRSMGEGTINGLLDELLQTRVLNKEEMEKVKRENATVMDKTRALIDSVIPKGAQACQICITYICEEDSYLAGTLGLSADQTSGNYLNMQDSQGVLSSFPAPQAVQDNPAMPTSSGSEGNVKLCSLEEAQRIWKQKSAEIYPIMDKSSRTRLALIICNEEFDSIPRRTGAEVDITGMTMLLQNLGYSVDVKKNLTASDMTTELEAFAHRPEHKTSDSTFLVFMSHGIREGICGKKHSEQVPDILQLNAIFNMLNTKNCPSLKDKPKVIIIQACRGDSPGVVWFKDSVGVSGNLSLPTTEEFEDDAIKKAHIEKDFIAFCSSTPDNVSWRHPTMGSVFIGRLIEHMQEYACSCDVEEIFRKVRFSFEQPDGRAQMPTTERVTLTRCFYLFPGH

[2] = Half life of compound in ICE assay buffer (1 mM dithiothreitol) at 25 degree C; assay type: ADME; conditions: ICE assay buffer with 1 mM dithiothreitol
[3] = Half life of compound in ICE assay buffer (1 mM glutathione) at […] degree C; assay type: ADME; conditions: ICE assay buffer with 1 mM glutathione
[4] = Half life of compound in ICE assay buffer (1 mM dithiothreitol) at 25 degree C (98% intact after 120 h); assay type: ADME; conditions: ICE assay buffer with 1 mM dithiothreitol
[5] = Half life of compound in ICE assay buffer (1 mM dithiothreitol) at 25 degree C (89% intact after 120 h); assay type: ADME; conditions: ICE assay buffer with 1 mM dithiothreitol

Row | second-order inactivation rate constant (kobs/[I]) [1] [M⁻¹ s⁻¹] | half-life [3] [h] | Compound | further results
1 | 120 |  | CC(C)[C@H](NC(=O)OCc1ccccc1)C(=O)N[C@@H](C)C(=O)NN(CC(=O)O)C(=O)COC1=C(Cc2ccccc2)C(=O)OC1 | 
2 | 118000 | 0.96 | CC(C)[C@H](NC(=O)OCc1ccccc1)C(=O)N[C@@H](C)C(=O)N[C@@H](CC(=O)O)C(=O)COP(=O)(c1ccccc1)c1ccccc1 | 
3 | 19400 | 130 | CC(C)[C@H](NC(=O)OCc1ccccc1)C(=O)N[C@@H](C)C(=O)NN(CC(=O)O)C(=O)COP(=O)(c1ccccc1)c1ccccc1 | half-life [4]: > 120 h
4 | 470 |  | CC(C)[C@H](NC(=O)OCc1ccccc1)C(=O)N[C@@H](C)C(=O)NN(CC(=O)O)C(=O)COc1cc(C(F)(F)F)nn1-c1ccccc1 | 

Continued, molecule first:

Row | Compound | second-order inactivation rate constant (kobs/[I]) [1] [M⁻¹ s⁻¹] | half-life [3] [h] | further results
5 | CC(C)[C@H](NC(=O)OCc1ccccc1)C(=O)N[C@@H](C)C(=O)N[C@@H](CC(=O)O)C(=O)CCl (HELM PEPTIDE1{[O=C(OCc1ccccc1)[*:2]].V.A.D.[ClC[*:1]]}$$$$V2.0) |  |  | half-life [2]: 0.25 h
6 | CC(C)[C@H](NC(=O)OCc1ccccc1)C(=O)N[C@@H](C)C(=O)NN(CC(=O)O)C(=O)COC(=O)c1c(Cl)cccc1Cl | 700 |  | 
7 | CC(C)[C@H](NC(=O)OCc1ccccc1)C(=O)N[C@@H](C)C(=O)NN(CC(=O)O)C(=O)CCl | 27300 | 3.5 | half-life [5]: > 120 h
8 | CC(C)[C@H](NC(=O)OCc1ccccc1)C(=O)N[C@@H](C)C(=O)NC(CC(=O)O)C(=O)COC1=C(Cc2ccccc2)C(=O)OC1 (some centres undefined) | 290000 |  | 
9 | CC(C)[C@H](NC(=O)OCc1ccccc1)C(=O)N[C@@H](C)C(=O)NN(CC(=O)O)C(=O)CBr | 1640 |  | 
